SMILES strings stand for the structures.

The values below come from patent US12264299B2, “Detergent composition” (SYMRISE AG, priority 2018, dated 2025).

The subject of the assay is Corynebacterium xerosis ATCC373 and Staphylococcus aureus ATCC6538. As to the kind of experiment: Microbial counts on inoculated synthetic fabric after washing and drying. Type of assay: cell-based. The settings on record: comparison of groups, 24 and 72 hours results. An excerpt:
The objective of the following examples and comparison examples has been to evaluate bactericide and bacteriostatic performance of a specific active composition (SymClariol, Symrise AG) at 0.25% and 1% in a regular fabric softener composition.
Inoculate Corynebacterium xerosis ATCC373 and Staphylococcus aureus ATCC6538 in white synthetic fabric 89% polyester and 11% elastane. SymClariol stands for 1,2-decanediol and is a commercially available product distributed by Symrise AG.
Cut the fabric in pieces of 10 cm×10 cm (100 cm^2) to be inoculate.
It was used: • Corynebacterium xerosis ATCC373 strain in saline solution 0.85% • Staphylococcus aureus ATCC6538 strain in saline solution 0.85% • Sterile Saline solution to wet the fabric • Liquid laundry detergent Tixan Ipê batch 065091 16:30 manufactured in March, 2016 and expiration date March, 2018 • Regular Fabric Softener+Active 1 (SymClariol at 0.25%) • Regular Fabric Softener+Active 2 (SymClariol at 1%) • Regular Fabric Softener Placebo • Wash machine Electrolux
All materials were analyzed before the beginning of the tests and had <10 CFU/g for bacteria and fungi and absence of pathogens. An initial wash of the tissue was carried out with the purpose of reducing the initial microbiological count and subsequent counting for a reduction confirmation of 10 CFU/g and absence of pathogens. […]

For the compound `CCCCCCCCC(O)CO` (stereo not shown) [SymClariol, 1,2-decanediol], the “bactericide and bacteriostatic performance (in words)” value is “improved the bactericide and bacteriostatic performance”.
